From paper PMC8279981, “A first-in-human, phase 1 study of the NEDD8 activating enzyme E1 inhibitor TAS4464 in patients with advanced solid tumors” (Investigational New Drugs, 2021)

System: patients with advanced or metastatic solid tumors
Experiment: Phase 1 study: treatment-related adverse events (NCI CTCAE v4.03)
Assay type: in vivo, human
Settings: for Anemia (treatment-related adverse event) / Blood bilirubin increased (treatment-related adverse event) / Decreased appetite (treatment-related adverse event) / Diarrhea (treatment-related adverse event) / Fatigue (treatment-related adverse event) / GGT increased (treatment-related adverse event) / Hypoalbuminemia (treatment-related adverse event) / Malaise (treatment-related adverse event) / Nausea (treatment-related adverse event) / Neuropathy peripheral (treatment-related adverse event) / Pyrexia (treatment-related adverse event) / Rash (treatment-related adverse event) / Vomiting (treatment-related adverse event) / WBC decreased (treatment-related adverse event) / ALP increased (treatment-related adverse event) / ALT increased (treatment-related adverse event) / AST increased (treatment-related adverse event): Grade ≥ 3
Method: The highest non-severely toxic dose was derived from a dog toxicology study and was used to calculate a clinical starting dose of 10 mg/m^2, which corresponds to one-sixth of the human-equivalent dose. The maximum tolerated dose (MTD) of TAS4464 was investigated using an accelerated titration design. Initially, the starting TAS4464 dose was 10 mg/m^2 and was followed by an initial accelerated stage (i.e., weekly dosing phase) with 100% dose-step increments (level 1: 10 mg/m^2, level 2: 20 mg/m^2, level 3: 40 mg/m^2, and level 4: 56 mg/m^2). The 100% dose-step increments continued until the occurrence of a grade ≥ 2 drug-related toxicity within Cycle 1; dose-limiting toxicity (DLT) within Cycle 1; the next dose level reaching 60 mg/m^2; or any safety concerns. Thereafter, 40% increments were employed in the standard stage.
In the standard stage, three to six patients were to be enrolled, and the dose was escalated in 40% increments if none of the first three patients experienced a DLT. If one patient experienced a DLT, three additional patients were to be enrolled at the same dose level. If two of three or two of six patients experienced a DLT, the dose escalation was to be ceased. […] Additionally, DLT criteria regarding abnormal liver function and discontinuation criteria for study drug administration were added. The TAS4464 dose level for Day 1 of Cycle 1 was then set to 40 mg/m^2 (level 3).
Therefore, TAS4464 was administered every 7 days by 1-h intravenous infusion (± 10 min) at the dose assigned to each level. Study treatment was repeated every 28 days. The dosing regimens of each cohort are summarized in Supplementary Fig. 1.
Secondary objectives included assessment of AEs, treatment-related AEs, objective response rate (ORR), disease control rate (DCR), progression-free survival (PFS), and PK, pharmacodynamic, and pharmacogenomic (PGx) parameters with TAS4464 administration. The National Cancer Institute Common Terminology Criteria for Adverse Events (NCI CTCAE) v4.03 [17] was used to assess the severity of AEs. […] RECIST v1.1 [16] was used to determine clinical response, and all computed tomography images were assessed by the physician at the study site after completion of the imaging procedure. The ORR was defined as the percentage of patients with the best overall response of complete response (CR) or partial response (PR). The DCR was the percentage of patients with a best overall response of CR, PR, stable disease (SD), or non-CR/non-progressive disease (PD). PFS was defined as the time from the date of enrollment until the date of investigator-assessed radiological disease progression or death due to any cause, whichever occurred first.

[1] = weekly dosing Level 1 (10 mg/m^2), n = 1
[2] = weekly dosing Level 2 (20 mg/m^2), n = 1
[3] = weekly dosing Level 3 (40 mg/m^2), n = 3
[4] = weekly dosing Level 4 (56 mg/m^2), n = 5
[5] = weekly dosing with lead-in Level 3 (20 → 40 mg/m^2), n = 3
[6] = weekly dosing with lead-in Level 4 (20 → 56 mg/m^2), n = 3

Structure (SMILES): CCOc1cccc(F)c1C#Cc1cn([C@@H]2O[C@H](CNS(N)(=O)=O)[C@@H](O)[C@H]2O)c2ncnc(N)c12 [TAS4464]
- Anemia (treatment-related adverse event) (Total, N = 16): 0 n (%)
- Blood bilirubin increased (treatment-related adverse event) (Total, N = 16): 0 n (%)
- Decreased appetite (treatment-related adverse event) (Total, N = 16): 0 n (%)
- Diarrhea (treatment-related adverse event) (Total, N = 16): 0 n (%)
- Fatigue (treatment-related adverse event) (Total, N = 16): 0 n (%)
- GGT increased (treatment-related adverse event) (Total, N = 16): 3 (18.8) n (%)
- Hypoalbuminemia (treatment-related adverse event) (Total, N = 16): 0 n (%)
- Malaise (treatment-related adverse event) (Total, N = 16): 0 n (%)
- Nausea (treatment-related adverse event) (Total, N = 16): 0 n (%)
- Neuropathy peripheral (treatment-related adverse event) (Total, N = 16): 0 n (%)
- Pyrexia (treatment-related adverse event) (Total, N = 16): 0 n (%)
- Rash (treatment-related adverse event) (Total, N = 16): 0 n (%)
- Vomiting (treatment-related adverse event) (Total, N = 16): 0 n (%)
- WBC decreased (treatment-related adverse event) (Total, N = 16): 1 (6.3) n (%)
- ALP increased (treatment-related adverse event) [1]: 0 n (%)
- ALT increased (treatment-related adverse event) [1]: 0 n (%)
- AST increased (treatment-related adverse event) [1]: 0 n (%)
- Anemia (treatment-related adverse event) [1]: 0 n (%)
- Blood bilirubin increased (treatment-related adverse event) [1]: 0 n (%)
- Decreased appetite (treatment-related adverse event) [1]: 0 n (%)
- Diarrhea (treatment-related adverse event) [1]: 0 n (%)
- Fatigue (treatment-related adverse event) [1]: 0 n (%)
- GGT increased (treatment-related adverse event) [1]: 0 n (%)
- Hypoalbuminemia (treatment-related adverse event) [1]: 0 n (%)
- Malaise (treatment-related adverse event) [1]: 0 n (%)
- Nausea (treatment-related adverse event) [1]: 0 n (%)
- Neuropathy peripheral (treatment-related adverse event) [1]: 0 n (%)
- Pyrexia (treatment-related adverse event) [1]: 0 n (%)
- Rash (treatment-related adverse event) [1]: 0 n (%)
- Vomiting (treatment-related adverse event) [1]: 0 n (%)
- WBC decreased (treatment-related adverse event) [1]: 0 n (%)
- ALP increased (treatment-related adverse event) [2]: 0 n (%)
- ALT increased (treatment-related adverse event) [2]: 0 n (%)
- AST increased (treatment-related adverse event) [2]: 0 n (%)
- Anemia (treatment-related adverse event) [2]: 0 n (%)
- Blood bilirubin increased (treatment-related adverse event) [2]: 0 n (%)
- Decreased appetite (treatment-related adverse event) [2]: 0 n (%)
- Diarrhea (treatment-related adverse event) [2]: 0 n (%)
- Fatigue (treatment-related adverse event) [2]: 0 n (%)
- GGT increased (treatment-related adverse event) [2]: 0 n (%)
- Hypoalbuminemia (treatment-related adverse event) [2]: 0 n (%)
- Malaise (treatment-related adverse event) [2]: 0 n (%)
- Nausea (treatment-related adverse event) [2]: 0 n (%)
- Neuropathy peripheral (treatment-related adverse event) [2]: 0 n (%)
- Pyrexia (treatment-related adverse event) [2]: 0 n (%)
- Rash (treatment-related adverse event) [2]: 0 n (%)
- Vomiting (treatment-related adverse event) [2]: 0 n (%)
- WBC decreased (treatment-related adverse event) [2]: 0 n (%)
- ALP increased (treatment-related adverse event) [3]: 0 n (%)
- ALT increased (treatment-related adverse event) [3]: 1 (33.3) n (%)
- AST increased (treatment-related adverse event) [3]: 1 (33.3) n (%)
- Anemia (treatment-related adverse event) [3]: 0 n (%)
- Blood bilirubin increased (treatment-related adverse event) [3]: 0 n (%)
- Decreased appetite (treatment-related adverse event) [3]: 0 n (%)
- Diarrhea (treatment-related adverse event) [3]: 0 n (%)
- Fatigue (treatment-related adverse event) [3]: 0 n (%)
- GGT increased (treatment-related adverse event) [3]: 0 n (%)
- Hypoalbuminemia (treatment-related adverse event) [3]: 0 n (%)
- Malaise (treatment-related adverse event) [3]: 0 n (%)
- Nausea (treatment-related adverse event) [3]: 0 n (%)
- Neuropathy peripheral (treatment-related adverse event) [3]: 0 n (%)
- Pyrexia (treatment-related adverse event) [3]: 0 n (%)
- Rash (treatment-related adverse event) [3]: 0 n (%)
- Vomiting (treatment-related adverse event) [3]: 0 n (%)
- WBC decreased (treatment-related adverse event) [3]: 0 n (%)
- ALP increased (treatment-related adverse event) [4]: 1 (20.0) n (%)
- ALT increased (treatment-related adverse event) [4]: 3 (60.0) n (%)
- AST increased (treatment-related adverse event) [4]: 3 (60.0) n (%)
- Anemia (treatment-related adverse event) [4]: 0 n (%)
- Blood bilirubin increased (treatment-related adverse event) [4]: 0 n (%)
- Decreased appetite (treatment-related adverse event) [4]: 0 n (%)
- Diarrhea (treatment-related adverse event) [4]: 0 n (%)
- Fatigue (treatment-related adverse event) [4]: 0 n (%)
- GGT increased (treatment-related adverse event) [4]: 3 (60.0) n (%)
- Hypoalbuminemia (treatment-related adverse event) [4]: 0 n (%)
- Malaise (treatment-related adverse event) [4]: 0 n (%)
- Nausea (treatment-related adverse event) [4]: 0 n (%)
- Neuropathy peripheral (treatment-related adverse event) [4]: 0 n (%)
- Pyrexia (treatment-related adverse event) [4]: 0 n (%)
- Rash (treatment-related adverse event) [4]: 0 n (%)
- Vomiting (treatment-related adverse event) [4]: 0 n (%)
- WBC decreased (treatment-related adverse event) [4]: 1 (20.0) n (%)
- ALP increased (treatment-related adverse event) [5]: 0 n (%)
- ALT increased (treatment-related adverse event) [5]: 0 n (%)
- AST increased (treatment-related adverse event) [5]: 0 n (%)
- Anemia (treatment-related adverse event) [5]: 0 n (%)
- Blood bilirubin increased (treatment-related adverse event) [5]: 0 n (%)
- Decreased appetite (treatment-related adverse event) [5]: 0 n (%)
- Diarrhea (treatment-related adverse event) [5]: 0 n (%)
- Fatigue (treatment-related adverse event) [5]: 0 n (%)
- GGT increased (treatment-related adverse event) [5]: 0 n (%)
- Hypoalbuminemia (treatment-related adverse event) [5]: 0 n (%)
- Malaise (treatment-related adverse event) [5]: 0 n (%)
- Nausea (treatment-related adverse event) [5]: 0 n (%)
- Neuropathy peripheral (treatment-related adverse event) [5]: 0 n (%)
- Pyrexia (treatment-related adverse event) [5]: 0 n (%)
- Rash (treatment-related adverse event) [5]: 0 n (%)
- Vomiting (treatment-related adverse event) [5]: 0 n (%)
- WBC decreased (treatment-related adverse event) [5]: 0 n (%)
- ALP increased (treatment-related adverse event) [6]: 0 n (%)
- ALT increased (treatment-related adverse event) [6]: 1 (33.3) n (%)
- AST increased (treatment-related adverse event) [6]: 1 (33.3) n (%)
- Anemia (treatment-related adverse event) [6]: 0 n (%)
- Blood bilirubin increased (treatment-related adverse event) [6]: 0 n (%)
- Decreased appetite (treatment-related adverse event) [6]: 0 n (%)
- Diarrhea (treatment-related adverse event) [6]: 0 n (%)
- Fatigue (treatment-related adverse event) [6]: 0 n (%)
- GGT increased (treatment-related adverse event) [6]: 0 n (%)
- Hypoalbuminemia (treatment-related adverse event) [6]: 0 n (%)
- Malaise (treatment-related adverse event) [6]: 0 n (%)
- Nausea (treatment-related adverse event) [6]: 0 n (%)
- Neuropathy peripheral (treatment-related adverse event) [6]: 0 n (%)
- Pyrexia (treatment-related adverse event) [6]: 0 n (%)
- Rash (treatment-related adverse event) [6]: 0 n (%)
- Vomiting (treatment-related adverse event) [6]: 0 n (%)
- WBC decreased (treatment-related adverse event) [6]: 0 n (%)
- ALT increased, Grade ≥ 3 treatment-related AE (all treated patients): 31.3%
- ALT increased, all-grade treatment-related AE (all treated patients): 68.8%
- AST increased, Grade ≥ 3 treatment-related AE (all treated patients): 31.3%
- AST increased, all-grade treatment-related AE (all treated patients): 62.5%
- alkaline phosphatase (ALP) increased, all-grade treatment-related AE (all treated patients): 43.8%
- decreased appetite, all-grade treatment-related AE (all treated patients): 31.3%
- nausea, all-grade treatment-related AE (all treated patients): 43.8%
- drug-induced liver injury by Hy's law criteria (doses of up to 56 mg/m^2): No patients presented with drug-induced liver injury
- treatment-related serious AE (weekly dosing level 4, resolved following TAS4464 dose reduction): ALT increased occurring in one patient
- serious AEs (whole study): Four serious AEs were reported in three patients
- deaths or fatal AEs (within the study period): No deaths or fatal AEs occurred
